Data as given in ChEMBL document CHEMBL3045600, “Synthesis and Fungicidal Activities of Phenoxyphenyl Alkoxyiminoacetamide Derivatives” (J Pestic Sci, 1998).

How the values were obtained:
Format in all cases: functional
[1] = system: Thanatephorus cucumeris; assay: Fungicidal activity against Thanatephorus cucumeris assessed as rice sheath blight disease control at 31.3 ppm foliar application for 24 hr before inoculation at 26 +- 2 measured after 5 days by preventive manner
[2] = system: Thanatephorus cucumeris; assay: Fungicidal activity against Thanatephorus cucumeris assessed as rice sheath blight disease control at 7.8 ppm foliar application for 24 hr before inoculation at 26 +- 2 measured after 5 days by preventive manner
[3] = system: Thanatephorus cucumeris; assay: Fungicidal activity against Thanatephorus cucumeris assessed as rice sheath blight disease control at 2 ppm foliar application for 24 hr before inoculation at 26 +- 2 measured after 5 days by preventive manner
[4] = system: Podosphaera fuliginea; assay: Fungicidal activity against Podosphaera fuliginea assessed as cucumber powdery mildew control under greenhouse at 7.8 ppm foliar application 24 hr after inoculation on upper surface of leaf at 23 +/- 2 degC by curative manner
[5] = system: Podosphaera fuliginea; assay: Fungicidal activity against Podosphaera fuliginea assessed as cucumber powdery mildew control under greenhouse at 2 ppm foliar application 24 hr after inoculation on upper surface of leaf at 23 +/- 2 degC by curative manner
[6] = system: Pyricularia oryzae; assay: Fungicidal activity against Magnaporthe oryzae assessed as rice blast disease control at 10 ppm submerged application measured after 7 days
[7] = system: Pyricularia oryzae; assay: Fungicidal activity against Magnaporthe oryzae assessed as rice blast disease control at 2.5 ppm submerged application measured after 7 days
[8] = system: Pyricularia oryzae; assay: Fungicidal activity against Magnaporthe oryzae assessed as rice blast disease control at 0.63 ppm submerged application measured after 7 days
[9] = system: Pyricularia oryzae; assay: Fungicidal activity against Magnaporthe oryzae assessed as rice blast disease control at 0.16 ppm submerged application measured after 7 days
[10] = system: Pseudoperonospora cubensis; assay: Fungicidal activity against Pseudoperonospora cubensis assessed as cucumber downy mildew disease control at 125 ppm foliar application 24 hr before inoculation on upper surface of leaf by preventive manner
[11] = system: Pseudoperonospora cubensis; assay: Fungicidal activity against Pseudoperonospora cubensis assessed as cucumber downy mildew disease control at 31.3 ppm foliar application 24 hr before inoculation on upper surface of leaf by preventive manner
[12] = system: Pseudoperonospora cubensis; assay: Fungicidal activity against Pseudoperonospora cubensis assessed as cucumber downy mildew disease control at 7.8 ppm foliar application 24 hr before inoculation on upper surface of leaf by preventive manner
[13] = system: Pseudoperonospora cubensis; assay: Fungicidal activity against Pseudoperonospora cubensis assessed as cucumber downy mildew disease control at 2 ppm foliar application 24 hr before inoculation on upper surface of leaf by preventive manner
[14] = system: Podosphaera fuliginea; assay: Fungicidal activity against Podosphaera fuliginea assessed as cucumber powdery mildew control under greenhouse at 125 ppm foliar application 24 hr before inoculation on upper surface of leaf at 23 +/- 2 degC by preventive manner
[15] = system: Podosphaera fuliginea; assay: Fungicidal activity against Podosphaera fuliginea assessed as cucumber powdery mildew control under greenhouse at 31.3 ppm foliar application 24 hr before inoculation on upper surface of leaf at 23 +/- 2 degC by preventive manner
[16] = system: Podosphaera fuliginea; assay: Fungicidal activity against Podosphaera fuliginea assessed as cucumber powdery mildew control under greenhouse at 7.8 ppm foliar application 24 hr before inoculation on upper surface of leaf at 23 +/- 2 degC by preventive manner
[17] = system: Podosphaera fuliginea; assay: Fungicidal activity against Podosphaera fuliginea assessed as cucumber powdery mildew control under greenhouse at 2 ppm foliar application 24 hr before inoculation on upper surface of leaf at 23 +/- 2 degC by preventive manner
[18] = system: Thanatephorus cucumeris; assay: Fungicidal activity against Thanatephorus cucumeris assessed as rice sheath blight disease control at 125 ppm foliar application for 24 hr before inoculation at 26 +- 2 measured after 5 days by preventive manner
[19] = system: Botrytis cinerea; assay: Fungicidal activity against Botryotinia fuckeliana assessed as cucumber gray mold disease control at 31.3 ppm foliar application 24 hr after inoculation at 22 +/- 2 degC measured after 3 days by curative manner
[20] = system: Botrytis cinerea; assay: Fungicidal activity against Botryotinia fuckeliana assessed as cucumber gray mold disease control at 7.8 ppm foliar application 24 hr after inoculation at 22 +/- 2 degC measured after 3 days by curative manner
[21] = system: Botrytis cinerea; assay: Fungicidal activity against Botryotinia fuckeliana assessed as cucumber gray mold disease control at 2 ppm foliar application 24 hr after inoculation at 22 +/- 2 degC measured after 3 days by curative manner
[22] = system: Podosphaera fuliginea; assay: Fungicidal activity against Podosphaera fuliginea assessed as cucumber powdery mildew control under greenhouse at 125 ppm foliar application 24 hr after inoculation on upper surface of leaf at 23 +/- 2 degC by curative manner
[23] = system: Podosphaera fuliginea; assay: Fungicidal activity against Podosphaera fuliginea assessed as cucumber powdery mildew control under greenhouse at 31.3 ppm foliar application 24 hr after inoculation on upper surface of leaf at 23 +/- 2 degC by curative manner
[24] = system: Pseudoperonospora cubensis; assay: Fungicidal activity against Pseudoperonospora cubensis assessed as cucumber downy mildew disease control at 125 ppm foliar application 24 hr after inoculation on upper surface of leaf by curative manner
[25] = system: Pseudoperonospora cubensis; assay: Fungicidal activity against Pseudoperonospora cubensis assessed as cucumber downy mildew disease control at 31.3 ppm foliar application 24 hr after inoculation on upper surface of leaf by curative manner
[26] = system: Pseudoperonospora cubensis; assay: Fungicidal activity against Pseudoperonospora cubensis assessed as cucumber downy mildew disease control at 7.8 ppm foliar application 24 hr after inoculation on upper surface of leaf by curative manner
[27] = system: Pseudoperonospora cubensis; assay: Fungicidal activity against Pseudoperonospora cubensis assessed as cucumber downy mildew disease control at 2 ppm foliar application 24 hr after inoculation on upper surface of leaf by curative manner
[28] = system: Botrytis cinerea; assay: Fungicidal activity against Botryotinia fuckeliana assessed as cucumber gray mold disease control at 125 ppm foliar application 24 hr after inoculation at 22 +/- 2 degC measured after 3 days by curative manner

Compound	Activity [1]	Activity [2]	Activity [3]	Activity [4]	Activity [5]	Activity [10]	Activity [11]	Activity [12]	Activity [13]	Activity [14]	Activity [15]	Activity [16]	Activity [17]	Activity [18]	Activity [19]	Activity [20]	Activity [21]	Activity [22]	Activity [23]	Activity [28]	other results
CNC(=O)/C(=N/OC)c1ccccc1Oc1ccc(I)cc1	70%	70%	70%	50%	50%	70%	70%	70%	70%	70%	70%	70%	70%	70%	50%	50%	50%	50%	50%	50%	Activity [6]: 50%; Activity [7]: 50%; Activity [8]: 50%; Activity [9]: 50%; Activity [24]: 50%; Activity [25]: 50%; Activity [26]: 50%; Activity [27]: 50%
CNC(=O)/C(=N/OC)c1ccccc1Oc1cccc(Oc2ccccc2)c1	70%	70%	70%	50%	50%	70%	70%	70%	70%	70%	70%	70%	70%	70%	50%	50%	50%	50%	50%	50%	Activity [6]: 50%; Activity [7]: 50%; Activity [8]: 50%; Activity [9]: 50%; Activity [24]: 50%; Activity [25]: 50%; Activity [26]: 50%; Activity [27]: 50%
CNC(=O)/C(=N/OC)c1ccccc1Oc1ccc(Cl)c(C)c1	70%	70%	70%	50%	50%	70%	70%	70%	70%	70%	70%	70%	70%	70%	50%	50%	50%	50%	50%	50%	Activity [6]: 50%; Activity [7]: 50%; Activity [8]: 50%; Activity [9]: 50%; Activity [24]: 50%; Activity [25]: 50%; Activity [26]: 50%; Activity [27]: 50%
CNC(=O)/C(=N/OC)c1ccccc1Oc1cccc(OC)c1	70%	70%	70%	50%	50%	70%	70%	70%	70%	70%	70%	70%	70%	70%	50%	50%	50%	50%	50%	50%	Activity [6]: 50%; Activity [7]: 50%; Activity [8]: 50%; Activity [9]: 50%; Activity [24]: <50%; Activity [25]: <50%; Activity [26]: <50%; Activity [27]: <50%
CNC(=O)/C(=N/OC)c1ccccc1Oc1ccc([N+](=O)[O-])cc1	<70%	<70%	<70%	50%	50%	<70%	<70%	<70%	<70%	70%	70%	70%	70%	<70%	50%	50%	50%	50%	50%	50%	Activity [24]: <50%; Activity [25]: <50%; Activity [26]: <50%; Activity [27]: <50%
CNC(=O)/C(=N/OC)c1ccccc1Oc1ccc([Si](C)(C)C)cc1	<70%	<70%	<70%	50%	50%	<70%	<70%	<70%	<70%	70%	70%	70%	70%	<70%	<50%	<50%	<50%	50%	50%	<50%	Activity [6]: <50%; Activity [7]: <50%; Activity [8]: <50%; Activity [9]: <50%
